Results as given in patent publication US20260140098A1, “METHOD FOR TREATING PLASMA SAMPLE CONTAINING (7aS,2'S)-2-OXO-CLOPIDOGREL AND METHOD FOR DETERMINING THE SAME” (CHENGDU SHIBEIKANG BIOMEDICAL TECHNOLOGY CO., LTD., priority 2021, published 2026).
Like-named read-outs stand apart in the source and are kept apart here.

Assay: Stability of (7aS,2′S)-2-oxo-clopidogrel in plasma, screening of TCEP dosage (Example 4)
Format: in vitro ADME
Details: for recovery at 0 min, 0.1 ng/mL / recovery at 30 min, 0.1 ng/mL / recovery at 60 min, 0.1 ng/mL / recovery at 120 min, 0.1 ng/mL: theoretical 0.1 ng/mL; for recovery at 0 min, 0.1 ng/mL / recovery at 30 min, 0.1 ng/mL / recovery at 60 min, 0.1 ng/mL / recovery at 120 min, 0.1 ng/mL / recovery at 0 min, 12 ng/mL / recovery at 30 min, 12 ng/mL / recovery at 60 min, 12 ng/mL / recovery at 120 min, 12 ng/mL: read-out: Recovery rate; for recovery at 0 min, 12 ng/mL / recovery at 30 min, 12 ng/mL / recovery at 60 min, 12 ng/mL / recovery at 120 min, 12 ng/mL: theoretical 12.0 ng/mL
Protocol: S2. Plasma sample pre-treatment: taking 100 μl of the plasma, adding 5 μl of an internal standard working solution and 300 μl of acetonitrile respectively; after vortex mixing, centrifuging at 2-8° C. and 10,000 r/min for 10 min, and collecting the supernatant for later use.
S3. LC-MS/MS analysis: injecting 10 μl of the supernatant prepared from step S2 for determination, where the liquid chromatography conditions are: • the chromatographic column is Kinetex® 1.7 μm C18 100 A 100×2.1 mm; the column temperature is 40° C.; the mobile phase is acetonitrile-0.2% aqueous formic acid solution with a flow rate of 0.2 ml/min; and a gradient elution is carried out as specified in the table below:
ESI ion source, positive ion detection in multiple reaction monitoring mode (MRM); the quantitatively analyzed ions (7aS,2′S)-2-oxo-clopidogrel: m/z 338.100→155.000, IS: m/z 341.100→158.000, a capillary voltage of 4.0 KV, a cone voltage of 25 V, a desolvation gas temperature of 400° C. and a source temperature of 150° C. The optimal collision energy is 20 eV.
Blank plasma was taken and TCEP was added to prepare plasma containing TCEP at different concentrations (10, 50, 100 mg/ml). Subsequently, standard series solution of (7aS,2′S)-2-oxo-clopidogrel was added separately to prepare quality control samples with two concentrations of (7aS,2′S)-2-oxo-clopidogrel (0.1 and 12.0 ng/ml), 3 samples for each concentration. They were placed at room temperature and on ice, respectively, and the plasma samples at different placing time points were taken to examine the stability by pre-treating the plasma samples according to the method of S2 of Example 1, followed by LC/MS/MS determination according to the method of S3.

[1] = plasma containing TCEP 10 mg/ml, TCEP 10 mg/ml, on ice
[2] = plasma containing TCEP 10 mg/ml, TCEP 10 mg/ml, room temperature
[3] = plasma without TCEP, No TCEP, on ice
[4] = plasma without TCEP, No TCEP, room temperature
[5] = plasma, TCEP 50 mg/ml, room temperature
[6] = plasma, TCEP 100 mg/ml, room temperature

recovery at 0 min, 0.1 ng/mL [1]: 96.5%
recovery at 30 min, 0.1 ng/mL [1]: 94.2%
recovery at 60 min, 0.1 ng/mL [1]: 86.3%
recovery at 120 min, 0.1 ng/mL [1]: 78.2%
recovery at 0 min, 0.1 ng/mL [2]: 96.5%
recovery at 30 min, 0.1 ng/mL [2]: 95.2%
recovery at 60 min, 0.1 ng/mL [2]: 83.3%
recovery at 120 min, 0.1 ng/mL [2]: 72.9%
recovery at 0 min, 12 ng/mL [1]: 102%
recovery at 30 min, 12 ng/mL [1]: 99.2%
recovery at 60 min, 12 ng/mL [1]: 88.8%
recovery at 120 min, 12 ng/mL [1]: 82.7%
recovery at 0 min, 12 ng/mL [2]: 102%
recovery at 30 min, 12 ng/mL [2]: 97.5%
recovery at 60 min, 12 ng/mL [2]: 86.7%
recovery at 120 min, 12 ng/mL [2]: 78.8%
recovery at 0 min, 0.1 ng/mL (plasma containing TCEP 50 mg/ml, TCEP 50 mg/ml, room temperature): 96.5%
Stability in plasma (in words) (plasma samples without TCEP): degraded fast
recovery at 0 min, 0.1 ng/mL [3]: 96.5%
recovery at 30 min, 0.1 ng/mL [3]: 84.2%
recovery at 60 min, 0.1 ng/mL [3]: 76.3%
recovery at 120 min, 0.1 ng/mL [3]: 62.2%
recovery at 30 min, 0.1 ng/mL [4]: 78.2%
recovery at 60 min, 0.1 ng/mL [4]: 63.3%
recovery at 120 min, 0.1 ng/mL [4]: 52.9%
recovery at 0 min, 12 ng/mL [3]: 102%
recovery at 30 min, 12 ng/mL [3]: 85.8%
recovery at 60 min, 12 ng/mL [3]: 80.4%
recovery at 120 min, 12 ng/mL [3]: 60.3%
recovery at 0 min, 12 ng/mL [4]: 102%
recovery at 30 min, 12 ng/mL [4]: 78.8%
recovery at 60 min, 12 ng/mL [4]: 69.8%
recovery at 120 min, 12 ng/mL [4]: 54.8%
recovery at 0 min, 0.1 ng/mL (plasma, No TCEP, room temperature): 96.5%
recovery at 0 min, 0.1 ng/mL (plasma, TCEP 50 mg/ml, on ice): 96.5%
recovery at 30 min, 0.1 ng/mL (plasma, TCEP 50 mg/ml, on ice): 95.6%
recovery at 60 min, 0.1 ng/mL (plasma, TCEP 50 mg/ml, on ice): 93.2%
recovery at 120 min, 0.1 ng/mL (plasma, TCEP 50 mg/ml, on ice): 91.1%
recovery at 30 min, 0.1 ng/mL [5]: 93.5%
recovery at 60 min, 0.1 ng/mL [5]: 91.4%
recovery at 120 min, 0.1 ng/mL [5]: 89.5%
recovery at 0 min, 12 ng/mL (plasma, TCEP 50 mg/ml, on ice): 102%
recovery at 30 min, 12 ng/mL (plasma, TCEP 50 mg/ml, on ice): 102%
recovery at 60 min, 12 ng/mL (plasma, TCEP 50 mg/ml, on ice): 99.2%
recovery at 120 min, 12 ng/mL (plasma, TCEP 50 mg/ml, on ice): 95%
recovery at 0 min, 12 ng/mL [5]: 102%
recovery at 30 min, 12 ng/mL [5]: 101%
recovery at 60 min, 12 ng/mL [5]: 99.2%
recovery at 120 min, 12 ng/mL [5]: 88.3%
recovery at 0 min, 0.1 ng/mL (plasma, TCEP 100 mg/ml, on ice): 96.5%
recovery at 30 min, 0.1 ng/mL (plasma, TCEP 100 mg/ml, on ice): 95.8%
recovery at 60 min, 0.1 ng/mL (plasma, TCEP 100 mg/ml, on ice): 94.2%
recovery at 120 min, 0.1 ng/mL (plasma, TCEP 100 mg/ml, on ice): 95.1%
recovery at 0 min, 0.1 ng/mL [6]: 96.5%
recovery at 30 min, 0.1 ng/mL [6]: 95.5%
recovery at 60 min, 0.1 ng/mL [6]: 93.4%
recovery at 120 min, 0.1 ng/mL [6]: 91.5%
recovery at 0 min, 12 ng/mL (plasma, TCEP 100 mg/ml, on ice): 102%
recovery at 30 min, 12 ng/mL (plasma, TCEP 100 mg/ml, on ice): 103%
recovery at 60 min, 12 ng/mL (plasma, TCEP 100 mg/ml, on ice): 101%
recovery at 120 min, 12 ng/mL (plasma, TCEP 100 mg/ml, on ice): 98.3%
recovery at 0 min, 12 ng/mL [6]: 102%
recovery at 30 min, 12 ng/mL [6]: 102%
recovery at 60 min, 12 ng/mL [6]: 99.2%
recovery at 120 min, 12 ng/mL [6]: 96.7%
SMILES: COC(=O)[C@H](c1ccccc1Cl)N1CC[C@@H]2SC(=O)C=C2C1 [(7aS,2′S)-2-oxo-clopidogrel, methyl(S)-2-(2-chlorophenyl)-2-((S)-2-oxo-2,6,7,7a-tetrahydrothieno[3,2-c]pyridin-5 (4H)-yl)acetate]
Stability in plasma (in words) (on ice compared with room temperature): more stable when placed on ice than at room temperature
